From patent publication US11384063B2, “Modulators of estrogen receptor proteolysis and associated methods of use” (Arvinas Operations, Inc., priority 2017, dated 2022) come the findings set out here.

One may read the IC50 as the concentration that inhibits the measured activity by half.

Some results are limits rather than exact numbers.

One assay deals with T1, ERα (Homo sapiens, UniProt P03372).
T1 sequence (P03372 1-595): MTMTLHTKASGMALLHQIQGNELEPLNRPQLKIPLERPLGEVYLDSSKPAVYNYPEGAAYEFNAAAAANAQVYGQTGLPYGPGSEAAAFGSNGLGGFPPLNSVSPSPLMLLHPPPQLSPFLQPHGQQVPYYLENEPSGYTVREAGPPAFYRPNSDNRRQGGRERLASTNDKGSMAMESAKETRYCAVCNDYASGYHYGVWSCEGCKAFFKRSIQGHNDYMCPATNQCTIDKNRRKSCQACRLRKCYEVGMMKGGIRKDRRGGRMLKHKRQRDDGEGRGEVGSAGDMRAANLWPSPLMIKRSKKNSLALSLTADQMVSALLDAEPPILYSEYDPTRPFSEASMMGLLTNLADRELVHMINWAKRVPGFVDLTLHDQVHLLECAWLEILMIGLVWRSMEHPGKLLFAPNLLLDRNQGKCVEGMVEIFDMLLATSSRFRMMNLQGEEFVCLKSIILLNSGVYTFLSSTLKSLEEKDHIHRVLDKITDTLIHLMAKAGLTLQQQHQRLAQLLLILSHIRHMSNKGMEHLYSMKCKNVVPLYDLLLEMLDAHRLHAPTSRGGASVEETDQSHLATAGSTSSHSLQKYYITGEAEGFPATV
Description: ERE luciferase reporter gene assay in T47D-KBluc cells (target engagement). More on the design: T47D human breast cancer cells stably transfected with estrogen responsive element/promoter/luciferase reporter gene; host or cells: T47D-KBluc cells. Type of assay: cell-based. To be noted: 10% FBS, 24 hours, Table 1 cereblon centric PROTACs, read-out: ER-α Luciferase IC50. How it is done:
Chimeric molecules were assessed for target engagement in T47D cells using the commercial kit of ERE luciferase reporter gene assay. In the assay, 10% FBS was included and estrogen level was measured to be 10 pM.
ERE Luciferase Assay for Compounds in Table 1-3.
T47D-KBluc cells (ATCC #CRL_2865, T47D human breast cancer cells stably transfected with estrogen responsive element/promoter/luciferase reporter gene) were seeded into 96-well white opaque plates in RPMI growth medium supplemented with 10% fetal bovine serum and allowed to adhere overnight in a 37° C. humidified incubator. The following day, cells were treated with PROTACs in a 12-point concentration curve (top final concentration of 300 nM with subsequent concentrations being 3-fold less with 2 pM being the lowest concentration in the assay). Each PROTAC was tested independently in two experiments on 96-well plates. After 24 hours, media was removed and lysis buffer was added to the wells. Following lysis, Bright-Glo™ Luciferase Assay Substrate (Prornega, Madison Wis.) was added and the luciferase activity was measured using a Cytation 3 plate reader (TioTek™, Winooski, Vt.). Each compound was assayed in duplicates and the activity was calculated as IC50 using GraphPad Prism software (San Diego, Calif.).
For the compound `O=C1CCC(N2Cc3cc(NCCCN4CCN(CCOc5ccc(Oc6c(-c7ccc(Br)cc7)sc7cc(O)ccc67)cc5)CC4)ccc3C2=O)C(=O)N1` (centres unmarked) [Compound 71], the IC50 came out at 0.94 nM. `O=C1CCC(N2C(=O)c3ccc(N4CCN(CCCCOc5ccc(Oc6c(-c7ccc(Br)cc7)sc7cc(O)ccc67)cc5)CC4)cc3C2=O)C(=O)N1` (centres unmarked) [Compound 60]: the IC50 was determined as 29.9 nM. As for `O=C1CCC(N2Cc3cc(N4CCN(CCCOc5ccc(Oc6c(-c7ccc(Br)cc7)sc7cc(O)ccc67)cc5)CC4)ccc3C2=O)C(=O)N1` (centres unmarked) [Compound 59], the IC50 was 3.6 nM. Still for that read-out and setting: to `O=C1CCC(N2Cc3cc(CCCCC(=O)N4CCN(CCOc5ccc(Oc6c(-c7ccc(Br)cc7)sc7cc(O)ccc67)cc5)CC4)ccc3C2=O)C(=O)N1` (centres unmarked) [Compound 47] belongs 0.86 nM; to `O=C1CCC(N2Cc3c(OCCOCCOCCOc4ccc(Oc5c(-c6ccc(Br)cc6)sc6cc(O)ccc56)cc4)cccc3C2=O)C(=O)N1` (centres unmarked) [Compound 19], 8.9 nM. Same read-out and setting: to `O=C1CCC(N2Cc3c(NCCN4CCN(CCOc5ccc(Oc6c(-c7ccc(O)cc7)sc7cc(O)ccc67)cc5)CC4)cccc3C2=O)C(=O)N1` (centres unmarked) [Compound 4] belongs 0.09 nM. With `O=C1CCC(N2Cc3cc(OC4CC5(CCN(CCOc6ccc(Oc7c(-c8ccc(Br)cc8)sc8cc(O)ccc78)cc6)CC5)C4)ccc3C2=O)C(=O)N1` (centres unmarked) [Compound 50], the IC50 is 2.2 nM. Same read-out and setting: the same measure for `Cc1nc2c(NCCN3CCN(CCOc4ccc(Oc5c(-c6ccc(Br)cc6)sc6cc(O)ccc56)cc4)CC3)cccc2c(=O)n1C1CCC(=O)NC1=O` (centres unmarked) [Compound 14]: 17.7 nM; for `O=C1CC[C@H](N2Cc3cc(OCCN4C[C@@H]5C[C@H]4CN5CCOc4ccc(Oc5c(-c6ccc(Br)cc6)sc6cc(O)ccc56)cc4)ccc3C2=O)C(=O)N1` [Compound 42]: 0.53 nM; for `C[C@@H](COc1ccc(Oc2c(-c3ccc(Br)cc3)sc3cc(O)ccc23)cc1)N1CCN(CCOc2cccc3c2CN(C2CCC(=O)NC2=O)C3=O)CC1` (some centres unmarked) [Compound 15]: 1.7 nM. Take `CC(COc1ccc(Oc2c(-c3ccc(Br)cc3)sc3cc(O)ccc23)cc1)N1CCN(CCCCc2ccc3c(c2)CN(C2CCC(=O)NC2=O)C3=O)CC1` (centres unmarked) [Compound 53]: the IC50 came out at 0.6 nM. For `O=C1CCC(N2C(=O)c3ccc(OCCCOCCCOCCCOc4ccc(Oc5c(-c6ccc(Br)cc6)sc6cc(O)ccc56)cc4)cc3C2=O)C(=O)N1` (centres unmarked) [Compound 80], the IC50 worked out at 37.4 nM. As for `O=C1CCC(N2Cc3cc(NCCOCCOCCOc4ccc(Oc5c(-c6ccc(Br)cc6)sc6cc(O)ccc56)cc4)ccc3C2=O)C(=O)N1` (centres unmarked) [Compound 86], the IC50 turned out to be 11 nM. Same read-out and setting: the same measure for `O=C1CCC(N2C(=O)c3cccc(NCCOCCOc4ccc(Oc5c(-c6ccc(Br)cc6)sc6cc(O)ccc56)cc4)c3C2=O)C(=O)N1` (centres unmarked) [Compound 29]: 19.2 nM; for `O=C1CCC(N2Cc3c(OCCN4CC5(CN(CCOc6ccc(Oc7c(-c8ccc(Br)cc8)sc8cc(O)ccc78)cc6)C5)C4)cccc3C2=O)C(=O)N1` (centres unmarked) [Compound 37]: 4.2 nM; for `O=C1CCC(N2Cc3cc(NCCOCCOc4ccc(Oc5c(-c6ccc(Br)cc6)sc6cc(O)ccc56)cc4)ccc3C2=O)C(=O)N1` (centres unmarked) [Compound 72]: 3.1 nM. On the same count and under the same terms, the same measure for `O=C1CCC(N2Cc3c(NCCN4CCN(CCOc5ccc(Oc6c(-c7ccc(Br)cc7)sc7cc(O)ccc67)cc5)CC4)cccc3C2=O)C(=O)N1` (centres unmarked) [Compound 5]: 0.9 nM; for `O=C1CCC(N2Cc3c(OCCOCCOCCOCCOc4ccc(Oc5c(-c6ccc(Br)cc6)sc6cc(O)ccc56)cc4)cccc3C2=O)C(=O)N1` (centres unmarked) [Compound 21]: 17.4 nM; for `O=C1CCC(N2Cc3cc(N4CCN(CCOc5ccc(Oc6c(-c7ccc(Br)cc7)sc7cc(O)ccc67)cc5)CC4)ccc3C2=O)C(=O)N1` (centres unmarked) [Compound 55]: 1.8 nM. On to `O=C1CCC(N2Cc3cc(CCC(=O)N4CCN(CCOc5ccc(Oc6c(-c7ccc(Br)cc7)sc7cc(O)ccc67)cc5)CC4)ccc3C2=O)C(=O)N1` (centres unmarked) [Compound 46], for which the IC50 amounted to 1.9 nM. Turning to `O=C1CCC(N2C(=O)c3ccc(NCCOCCOc4ccc(Oc5c(-c6ccc(Br)cc6)sc6cc(O)ccc56)cc4)cc3C2=O)C(=O)N1` (centres unmarked) [Compound 75], the IC50 worked out at 6.6 nM. Take `O=C1CCC(N2Cc3cc(N4CCN(CCCCCCOc5ccc(Oc6c(-c7ccc(Br)cc7)sc7cc(O)ccc67)cc5)CC4)ccc3C2=O)C(=O)N1` (centres unmarked) [Compound 54]: the IC50 amounted to 12.1 nM. In the case of `O=C1CCC(N2Cc3c(NCCOCCOc4ccc(Oc5c(-c6ccc(Br)cc6)sc6cc(O)ccc56)cc4)cccc3C2=O)C(=O)N1` (centres unmarked) [Compound 27], the IC50 stood at 8.3 nM.

The same assay, now with this note: 10% FBS, 24 hours, Table 2 VHL centric PROTACs, read-out: IC50.
Consider `Cc1ncsc1-c1ccc(CNC(=O)[C@@H]2C[C@@H](O)CN2C(=O)[C@@H](NC(=O)COCCO[C@H]2CCN(CCOc3ccc(Oc4c(-c5ccc(F)cc5)sc5cc(O)ccc45)cc3)C2)C(C)(C)C)cc1` [Compound 123], for which the IC50 is 5.5 nM. Same read-out and setting: to `CC(C)(C)[C@H](NC(=O)COCCOCCN1CCC(c2ccc(Oc3c(-c4ccc(F)cc4)sc4cc(O)ccc34)cc2)CC1)C(=O)N1C[C@H](O)C[C@H]1C(=O)NCc1ccc(Cl)cc1` [Compound 144] belongs greater than 100 nM. On the same count and under the same terms, to `Cc1ncsc1-c1ccc(CNC(=O)[C@@H]2C[C@@H](O)CN2C(=O)[C@@H](NC(=O)CCCC(=O)N2CCN(CCOc3ccc(Oc4c(-c5ccc(F)cc5)sc5cc(O)ccc45)cc3)CC2)C(C)(C)C)cc1` [Compound 114] belongs 22 nM; to `C[C@H](NC(=O)[C@@H]1C[C@@H](O)CN1C(=O)[C@@H](NC(=O)COCCOCCOCCOc1ccc(Oc2c(-c3ccc(F)cc3)sc3cc(O)ccc23)cc1)C(C)(C)C)c1ccc(C#N)cc1` [Compound 132], 1.3 nM.

Consider `CC(C)(C)[C@H](NC(=O)COCCOCCOCCOc1ccc(Oc2c(-c3ccc(F)cc3)sc3cc(O)ccc23)cc1)C(=O)N1C[C@H](O)C[C@H]1C(=O)NCc1ccc(C#N)cc1` [Compound 136], for which the IC50 was found to be 1.5 nM.

Still in this assay, the particulars now being: 10% FBS, 24 hours, Table 3 cereblon centric PROTACs, read-out: ER-α Luciferase IC50.
Take `O=C1CCC(N2Cc3c(cc(F)c(N4CCN(C5CC6(C5)CN(CCOc5ccc(Oc7c(-c8ccc(C(F)(F)F)cc8)sc8cc(O)ccc78)cc5)C6)CC4)c3F)C2=O)C(=O)N1` (centres unmarked) [Compound 206]: the IC50 worked out at 13.3 nM. In the case of `O=C1CCC(N2Cc3nc(N4CCN(CC5CCN(c6c(F)cc(Oc7c(-c8ccc(Br)cc8)sc8cc(O)ccc78)cc6F)CC5)CC4)ccc3C2=O)C(=O)N1` (centres unmarked) [Compound 242], the IC50 was 18.7 nM. Still for that read-out and setting: the same measure for `O=C1CCC(N2Cc3cc(C4CCN(C5CCN(CCOc6ccc(Oc7c(-c8ccc(Br)cc8)sc8cc(O)ccc78)cc6)CC5)CC4)ccc3C2=O)C(=O)N1` (centres unmarked) [Compound 196]: 8.6 nM; for `O=C1CCC(N2Cc3cc(N4CC(CN5CCC(c6ccc(Oc7c(-c8ccc(Br)cc8)sc8cc(O)ccc78)cc6)CC5)C4)ccc3C2=O)C(=O)N1` (centres unmarked) [Compound 241]: 6.7 nM.

For the compound `O=C1CCC(N2Cc3cc(N4CCN(CC5CCN(CCOc6ccc(Oc7c(-c8ccc(C(F)(F)F)cc8)sc8cc(O)ccc78)cc6)CC5)CC4)ccc3C2=O)C(=O)N1` (centres unmarked) [Compound 200], the IC50 was 8.4 nM. On the same count and under the same terms, to `O=C1CCC(N2Cc3cc(N4CCN(CCCOc5ccc(Oc6c(-c7ccc(Br)cc7)sc7cc(O)ccc67)cc5)CC4)cc(F)c3C2=O)C(=O)N1` (centres unmarked) [Compound 222] belongs 8.9 nM; to `O=C1CCC(N2C(=O)c3ccc(N4CCN(CC5CCN(CCOc6ccc(Oc7c(-c8ccc(C(F)(F)F)cc8)sc8cc(O)ccc78)cc6)CC5)CC4)cc3C2=O)C(=O)N1` (centres unmarked) [Compound 202], 14.8 nM.
